Source: US8741955B2, “D-serine transporter inhibitors as pharmaceutical compositions for the treatment of central nervous system disorders” (Allergan, Inc., priority 2011, dated 2014)

Legend:
human ASCT1 = molecular target: T1, human ASCT1 (Homo sapiens, UniProt P43007); test: transport into HEK cells expressing ASCT1; type: cell-based
T1 construct: expressed in transfected cells; host or cells: HEK (human embryonic kidney) cells
T1 sequence (P43007 1-532): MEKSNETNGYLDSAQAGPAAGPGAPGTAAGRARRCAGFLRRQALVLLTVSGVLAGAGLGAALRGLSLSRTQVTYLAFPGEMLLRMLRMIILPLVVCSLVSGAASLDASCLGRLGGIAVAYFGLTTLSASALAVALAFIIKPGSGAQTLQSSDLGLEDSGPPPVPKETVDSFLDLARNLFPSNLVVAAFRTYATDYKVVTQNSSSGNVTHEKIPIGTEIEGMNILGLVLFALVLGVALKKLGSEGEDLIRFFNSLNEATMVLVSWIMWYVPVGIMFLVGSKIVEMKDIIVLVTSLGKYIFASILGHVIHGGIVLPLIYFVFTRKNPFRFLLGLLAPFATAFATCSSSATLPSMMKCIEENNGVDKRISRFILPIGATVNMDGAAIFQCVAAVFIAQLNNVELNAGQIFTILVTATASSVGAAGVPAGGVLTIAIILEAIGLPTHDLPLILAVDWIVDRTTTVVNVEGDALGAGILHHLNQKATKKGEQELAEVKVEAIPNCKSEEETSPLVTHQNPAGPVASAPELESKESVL
Experimental: Cell-based assays: the transport of [^3H]L- or D-serine was measured in primary cultures of rat hippocampal astrocytes or in human embryonic kidney (HEK) cells expressing ASCT transporter sub-types. For the astrocyte assays, cells were plated on either 24- or 96-well plates at a density of 50,000 cells per well. For the HEK assays, cells were plated on coated 96-well plates at a density of 80,000 cells/well. Assays were conducted in duplicate at room temperature in assay buffer consisting of: NaCl: 150 mM, KCl: 2 mM; MgCl2: 1 mM; CaCl2: 1 mM; HEPES: Tris buffer: 10 mM, pH7.4. To assess the sodium-dependence of transport, NaCl was replaced in the assay buffer by equimolar choline chloride. Following aspiration of growth medium and 2 washes with assay buffer, cells were incubated with [^3H]L- or D-serine at a final concentration of 1 μM for 5 min (astrocytes) or 1 min (HEK cells), after which the incubation medium was aspirated and the cells washed twice with ice-cold assay buffer. Cells containing radiolabel were solubilized in 100 μl of 1% Triton-X100 and an aliquot counted in a beta counter. IC50 values were determined over a range of at least 6 concentrations and derived from curve-fitting algorithms available in GraphPad Prism 4.

[1] = tested on: amphetamine-induced hyperlocomotion; conditions: systemic administration; Smith et al, 2009; cited from earlier work

inhibition of [3H]L-serine transport in ASCT1-expressing HEK cells (human ASCT1): completely inhibited
SMILES: N[C@H](CO)C(=O)O [D-serine]
transport of [3H]D-serine into ASCT1-expressing HEK cells (substrate) (human ASCT1; with and without extracellular sodium): transported into ASCT1-expressing HEK cells in a sodium-dependent manner
effect on amphetamine-induced hyperlocomotion (literature) [1]: reduce amphetamine-induced hyperlocomotion
